What was measured:
[1] = tested on: LoVo; assay: cells; format: functional, cell-based; details: Homo sapiens;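 also: growth inhibition of human LoVo cells, read out with a cell viability assay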
Description: SANGER: Inhibition of human LoVo cell growth in a cell viability assay.

[2] = tested on: Capan-2; assay: cells; format: functional, cell-based; details: Homo sapiens;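 also: Capan-2 cell growth inhibition, read out with a viability assay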
Description: SANGER: Inhibition of human Capan-2 cell growth in a cell viability assay.

[3] = tested on: TCC-SUP; assay: cells; format: functional, cell-based; details: Homo sapiens;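 also: growth inhibition of TCC-SUP cells, read out with a cell viability assay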
Description: SANGER: Inhibition of human TCCSUP cell growth in a cell viability assay.

[4] = tested on: CAL-51; assay: cells; format: functional, cell-based; details: Homo sapiens;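 also: human CAL-51 cell line, growth inhibition read out via a cell viability assay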
Description: SANGER: Inhibition of human CAL-51 cell growth in a cell viability assay.

[5] = tested on: RPMI-6666; assay: cells; format: functional, cell-based; details: Homo sapiens
Description: SANGER: Inhibition of human RPMI-6666 cell growth in a cell viability assay.

[6] = tested on: UMUC3; assay: cells; format: functional, cell-based; details: Homo sapiens;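 also: growth inhibition of human UM-UC-3 cells, read out with a cell viability assay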
Description: SANGER: Inhibition of human UM-UC-3 cell growth in a cell viability assay.

[7] = tested on: ST486; assay: SANGER: Inhibition of human ST486 cell growth in a cell viability assay.; format: functional, cell-based
[8] = tested on: CCF-STTG1; assay: cells; format: functional, cell-based; details: Homo sapiens;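 also: growth inhibition of human CCF-STTG1 cells, determined with a cell viability read-out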
Description: SANGER: Inhibition of human CCF-STTG1 cell growth in a cell viability assay.

[9] = tested on: MDA-MB-134-VI; assay: cells; format: functional, cell-based; details: Homo sapiens
Description: SANGER: Inhibition of human MDA-MB-134-VI cell growth in a cell viability assay.

[10] = tested on: OE33; assay: cells; format: functional, cell-based; details: Homo sapiens;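 also: growth inhibition of human OE33 cells, measured by a cell viability assay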
Description: SANGER: Inhibition of human OE33 cell growth in a cell viability assay.

[11] = tested on: HCC1569; assay: cells; format: functional, cell-based; details: Homo sapiens;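 also: growth inhibition of human HCC1569 cells, read out with a cell viability assay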
Description: SANGER: Inhibition of human HCC1569 cell growth in a cell viability assay.

[12] = tested on: Huh-7; assay: cells; format: functional, cell-based; details: Homo sapiens;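 also: HuH-7 cell growth inhibition, read out with a cell viability assay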
Description: SANGER: Inhibition of human HuH-7 cell growth in a cell viability assay.

[13] = tested on: SJRH30; assay: cells; format: functional, cell-based; details: Homo sapiens;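 also: growth inhibition of human SJRH30 cells, read out with a cell viability assay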
Description: SANGER: Inhibition of human SJRH30 cell growth in a cell viability assay.

[14] = tested on: COLO-679; assay: cells; format: functional, cell-based; details: Homo sapiens
Description: SANGER: Inhibition of human COLO-679 cell growth in a cell viability assay.

[15] = tested on: NCI-H2452; assay: cells; format: functional, cell-based; details: Homo sapiens;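 also: growth inhibition of NCI-H2452 cells, read out with a cell viability assay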
Description: SANGER: Inhibition of human NCI-H2452 cell growth in a cell viability assay.

[16] = tested on: NCI-H2347; assay: cells; format: functional, cell-based; details: Homo sapiens;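 also: growth inhibition of the cell line, read out with a cell viability assay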
Description: SANGER: Inhibition of human NCI-H2347 cell growth in a cell viability assay.

[17] = tested on: CAL-85-1; assay: cells; format: functional, cell-based; details: Homo sapiens;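 also: growth inhibition of human CAL-85-1 cells, read out with a cell viability assay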
Description: SANGER: Inhibition of human CAL-85-1 cell growth in a cell viability assay.

[18] = tested on: NCI-H1703; assay: cells; format: functional, cell-based; details: Homo sapiens;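 also: growth inhibition of NCI-H1703 cells, read out via a cell viability assay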
Description: SANGER: Inhibition of human NCI-H1703 cell growth in a cell viability assay.

[19] = tested on: KOSC-2; assay: cells; format: functional, cell-based; details: Homo sapiens;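 also: growth inhibition of KOSC-2 cells, read out by a cell viability assay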
Description: SANGER: Inhibition of human KOSC-2 cell growth in a cell viability assay.

[20] = tested on: OVCAR-8; assay: cells; format: functional, cell-based; details: Homo sapiens;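 also: growth inhibition of human OVCAR-8 cells, read out by a cell viability assay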
Description: SANGER: Inhibition of human OVCAR-8 cell growth in a cell viability assay.

[21] = tested on: UACC-812; assay: cells; format: functional, cell-based; details: Homo sapiens
Description: SANGER: Inhibition of human UACC-812 cell growth in a cell viability assay.

[22] = tested on: NCI-H1694; assay: cells; format: functional, cell-based; details: Homo sapiens;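 also: cell viability assay measuring inhibition of growth in human NCI-H1694 cells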
Description: SANGER: Inhibition of human NCI-H1694 cell growth in a cell viability assay.

[23] = tested on: MFE-296; assay: SANGER: Inhibition of human MFE-296 cell growth in a cell viability assay.; format: functional, cell-based
[24] = tested on: CPC-N; assay: cells; format: functional, cell-based; details: Homo sapiens;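 also: growth inhibition of CPC-N cells, with a cell viability assay as the readout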
Description: SANGER: Inhibition of human CPC-N cell growth in a cell viability assay.

[25] = tested on: D-542MG; assay: cells; format: functional, cell-based; details: Homo sapiens
Description: SANGER: Inhibition of human D-542MG cell growth in a cell viability assay.

[26] = tested on: COR-L279; assay: SANGER: Inhibition of human COR-L279 cell growth in a cell viability assay.; format: functional, cell-based
[27] = tested on: NCI-H2087; assay: cells; format: functional, cell-based; details: Homo sapiens;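 also: growth inhibition determined with a cell viability readout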
Description: SANGER: Inhibition of human NCI-H2087 cell growth in a cell viability assay.

[28] = tested on: SK-N-AS; assay: cells; format: functional, cell-based; details: Homo sapiens;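 also: growth inhibition of human SK-N-AS cells, measured with a cell viability assay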
Description: SANGER: Inhibition of human SK-N-AS cell growth in a cell viability assay.

[29] = tested on: KYSE-140; assay: cells; format: functional, cell-based; details: Homo sapiens;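 also: cell viability assay measuring growth inhibition in human KYSE-140 cells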
Description: SANGER: Inhibition of human KYSE-140 cell growth in a cell viability assay.

[30] = tested on: GP5d; assay: cells; format: functional, cell-based; details: Homo sapiens;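 also: growth inhibition of human GP5d cells, read out with a cell viability assay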
Description: SANGER: Inhibition of human GP5d cell growth in a cell viability assay.

[31] = tested on: TUR; assay: cells; format: functional, cell-based; details: Homo sapiens;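 also: growth inhibition of human TUR cells, read out with a cell viability assay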
Description: SANGER: Inhibition of human TUR cell growth in a cell viability assay.

[32] = tested on: SNU-449; assay: cells; format: functional, cell-based; details: Homo sapiens
Description: SANGER: Inhibition of human SNU-449 cell growth in a cell viability assay.

[33] = tested on: COLO-680N; assay: cells; format: functional, cell-based; details: Homo sapiens;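 also: cell viability assay used to measure inhibition of COLO-680N cell growth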
Description: SANGER: Inhibition of human COLO-680N cell growth in a cell viability assay.

[34] = tested on: COLO-741; assay: cells; format: functional, cell-based; details: Homo sapiens
Description: SANGER: Inhibition of human COLO-741 cell growth in a cell viability assay.

[35] = tested on: Calu-1; assay: SANGER: Inhibition of human Calu-1 cell growth in a cell viability assay.; format: functional, cell-based
[36] = tested on: SW1088; assay: cells; format: functional, cell-based; details: Homo sapiens;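 also: growth inhibition of human SW1088 cells, read out by a cell viability assay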
Description: SANGER: Inhibition of human SW1088 cell growth in a cell viability assay.

[37] = tested on: NCI-H889; assay: cells; format: functional, cell-based; details: Homo sapiens;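 also: cell growth inhibition of the cell line, read out with a viability assay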
Description: SANGER: Inhibition of human NCI-H889 cell growth in a cell viability assay.

[38] = tested on: CAKI-1; assay: cells; format: functional, cell-based; details: Homo sapiens;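 also: growth inhibition of CAKI-1 cells, measured by a cell viability assay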
Description: SANGER: Inhibition of human CAKI-1 cell growth in a cell viability assay.

[39] = tested on: BHY; assay: cells; format: functional, cell-based; details: Homo sapiens;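 also: cell growth inhibition read out by a viability assay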
Description: SANGER: Inhibition of human BHY cell growth in a cell viability assay.

[40] = tested on: NCI-H1693; assay: cells; format: functional, cell-based; details: Homo sapiens;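 also: growth inhibition of the human cell line, read out with a cell viability assay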
Description: SANGER: Inhibition of human NCI-H1693 cell growth in a cell viability assay.

[41] = tested on: PFSK-1; assay: cells; format: functional, cell-based; details: Homo sapiens;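 also: cell viability assay measuring how strongly compounds suppress growth of human PFSK-1 cells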
Description: SANGER: Inhibition of human PFSK-1 cell growth in a cell viability assay.

[42] = tested on: CAL-120; assay: cells; format: functional, cell-based; details: Homo sapiens;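 also: cell growth inhibition, read out as cell viability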
Description: SANGER: Inhibition of human CAL-120 cell growth in a cell viability assay.

[43] = tested on: GDM-1; assay: cells; format: functional, cell-based; details: Homo sapiens;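 also: cell viability readout used to measure growth inhibition of human GDM-1 cells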
Description: SANGER: Inhibition of human GDM-1 cell growth in a cell viability assay.

[44] = tested on: SN12C; assay: cells; format: functional, cell-based; details: Homo sapiens;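 also: growth inhibition of human SN12C cells, measured by a cell viability assay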
Description: SANGER: Inhibition of human SN12C cell growth in a cell viability assay.

[45] = tested on: WSU-NHL; assay: cells; format: functional, cell-based; details: Homo sapiens;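 also: growth inhibition of human WSU-NHL cells, read out with a cell viability assay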
Description: SANGER: Inhibition of human WSU-NHL cell growth in a cell viability assay.

[46] = tested on: MKN-1; assay: cells; format: functional, cell-based; details: Homo sapiens;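 also: growth inhibition of human MKN1 cells, read out by a cell viability measurement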
Description: SANGER: Inhibition of human MKN1 cell growth in a cell viability assay.

[47] = tested on: G-402; assay: cells; format: functional, cell-based; details: Homo sapiens
Description: SANGER: Inhibition of human G-402 cell growth in a cell viability assay.

[48] = tested on: LB647-SCLC; assay: cells; format: functional, cell-based; details: Homo sapiens;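 also: cell growth inhibition, read out by a viability assay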
Description: SANGER: Inhibition of human LB647-SCLC cell growth in a cell viability assay.

[49] = tested on: SW13; assay: cells; format: functional, cell-based; details: Homo sapiens;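 also: IC50 is inhibition of SW13 cell growth, read out with a cell viability assay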
Description: SANGER: Inhibition of human SW13 cell growth in a cell viability assay.

[50] = tested on: 769-P; assay: cells; format: functional, cell-based; details: Homo sapiens
Description: SANGER: Inhibition of human 769-P cell growth in a cell viability assay.

[51] = tested on: CAL-33; assay: cells; format: functional, cell-based; details: Homo sapiens;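 also: growth inhibition of CAL-33 cells, read out with a cell viability assay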
Description: SANGER: Inhibition of human CAL-33 cell growth in a cell viability assay.

[52] = tested on: A-427; assay: cells; format: functional, cell-based; details: Homo sapiens;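 also: growth inhibition of human A-427 cells, read out by a cell viability assay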
Description: SANGER: Inhibition of human A427 cell growth in a cell viability assay.

[53] = tested on: CAL-27; assay: cells; format: functional, cell-based; details: Homo sapiens;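 also: Viability-based readout, IC50 reflecting inhibition of CAL-27 cell growth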
Description: SANGER: Inhibition of human CAL-27 cell growth in a cell viability assay.

[54] = tested on: DMS-53; assay: cells; format: functional, cell-based; details: Homo sapiens;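 also: cell viability assay measuring growth inhibition of human DMS-53 cells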
Description: SANGER: Inhibition of human DMS-53 cell growth in a cell viability assay.

[55] = tested on: HCC1599; assay: cells; format: functional, cell-based; details: Homo sapiens;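 also: growth inhibition of HCC1599 cells, read out in a cell viability assay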
Description: SANGER: Inhibition of human HCC1599 cell growth in a cell viability assay.

[56] = tested on: KARPAS-422; assay: cells; format: functional, cell-based; details: Homo sapiens
Description: SANGER: Inhibition of human KARPAS-422 cell growth in a cell viability assay.

[57] = tested on: HuCCT-1; assay: cells; format: functional, cell-based, HuCCT1; details: Homo sapiens;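 also: growth inhibition of HuCCT-1 cells, read out by a cell viability assay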
Description: SANGER: Inhibition of human HuCCT1 cell growth in a cell viability assay.

[58] = tested on: D-392MG; assay: cells; format: functional, cell-based; details: Homo sapiens
[59] = tested on: NB1; assay: cells; format: functional, cell-based; details: Homo sapiens;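 also: reduction of NB1 cell proliferation, read out with a viability assay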
Description: SANGER: Inhibition of human NB1 cell growth in a cell viability assay.

[60] = tested on: PANC-03-27; assay: cells; format: functional, cell-based; details: Homo sapiens
Description: SANGER: Inhibition of human PANC-03-27 cell growth in a cell viability assay.

[61] = tested on: NCI-H716; assay: cells; format: functional, cell-based; details: Homo sapiens;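 also: growth inhibition of human NCI-H716 cells, measured by a cell viability assay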
Description: SANGER: Inhibition of human NCI-H716 cell growth in a cell viability assay.

Measured: IC50

CC(O)(CS(=O)(=O)c1ccc(F)cc1)C(=O)Nc1ccc(C#N)c(C(F)(F)F)c1 (stereo unspecified) [BICALUTAMIDE]
> 1.02 µM: all assays above

Source: ChEMBL document CHEMBL1201861, “Genomics of Drug Sensitity in Cancer screening data, Wellcome Trust Sanger Institute”
